pIC50: −log10 of the molar value.

Results on one substance are retold here after US10800790B2, “Sesquiterpenoid STAT3 inhibitors” (University of Hawaii, priority 2013, dated 2020).

The subject of one assay is PTP1B. Kind of assay: Immunoblotting of PTP1B levels in U251MG cells. It counts as cell-based, human. The following applies: 5 micromolar. As for the experimental part:
To further investigate into the mechanism of inhibition of STAT3 induction, effects on protein tyrosine […] (PTPs) were determined. […] Instead, the potent inhibitory effects of agents (5 micromolar) countered the robust pY705STAT3 induction by orthovanadate alone.
FIGS. 13A-13C show analyses of STAT1, STAT3, STAT5, Akt, Erk1/2, JAK2, SOCS, and PTP1B activation or STAT3-EGFR association and the effects of active hirsutinolides and sodium orthovanadate. (A-C) SDS-PAGE and Western blotting analysis of whole-cell lysates of equal total protein prepared from (A) EGF-stimulated NIH3T3/hEGFR cells pre-treated with the 5 micromolar of the designated agents for 24 h and probing for pY705STAT3, STAT3, pY701 STAT1, STAT1, pY694STAT5, STAT5 or GAPDH, or the human glioma, U251MG cells treated with 5 micromolar of the designated inhibitors for (B) 0-32 h and probing for pS-Akt, Akt, pErk1/2, Erk1/2, pJAK2, JAK2, SOCS3, PTP1B, pSTAT3, STAT3, β-actin or GAPDH; or (C) 3 h in the absence or presence of increasing concentration of Na3VO4 and probing for pSTAT3, STAT3 or GAPDH/.

For assay [1], the system named is STAT3 DNA-binding activity. Kind of assay: STAT3 DNA-binding activity (EMSA) of nuclear extracts from treated tumor cells. The following applies: 5 micromolar, time course.
Experimental: Positions of STATs:DNA complexes or proteins in gel are labeled; control lanes (0) represent nuclear extracts or whole-cell lysates prepared from 0.05% DMSO-treated cells.
Nuclear extract preparations and DNA-binding/electrophoretic mobility shift assay (EMSA) were carried out as previously described (Xu, supra). Nuclear extract preparations and DNA-binding activity/electrophoretic mobility shift assay (EMSA) were carried out as previously described. U251 MG and MDA-MB-231 cells culture were pretreated with different concentrations of the compounds for the indicated period and then harvested for nuclear extract preparation and DNA-binding assay with EMSA analysis. […] Except where indicated, nuclear extracts were pre-incubated with compound for 30 min at room temperature prior to incubation with the radiolabeled probe for 30 min at 30° C. before subjecting to EMSA analysis.
Assay [2] has as its target T1, STAT3 (NIH3T3/v-Src nuclear extracts) (Mus musculus, UniProt P42227).
T1 construct: nuclear extracts prepared from v-Src-transformed mouse fibroblasts (NIH3T3/v-Src) containing active STAT3; endogenous in cells; host or cells: NIH3T3/v-Src mouse fibroblasts (nuclear extract)
Kind of assay: In vitro STAT3 DNA-binding activity/EMSA, nuclear extracts incubated with compound. The following applies: 5 micromolar, 30 min at room temperature. It counts as biochemical. As to the method:
To further determine the effects of the bioactive agents on STAT3 activity, nuclear extracts prepared from v-Src-transformed mouse fibroblasts (NIH3T3/v-Src) containing active STAT3 were directly incubated with 5 micromolar compounds for 30 min at room temperature prior to performing STAT3 DNA-binding activity in vitro with EMSA analysis. […] These studies indicate that agents directly interact with STAT3 and disrupt STAT3:STAT3 dimers, thereby inhibiting its DNA-binding activity.
Data are representative of 2-3 independent determinations.
Nuclear extract preparations and DNA-binding/electrophoretic mobility shift assay (EMSA) were carried out as previously described (Xu, supra). Nuclear extract preparations and DNA-binding activity/electrophoretic mobility shift assay (EMSA) were carried out as previously described. U251 MG and MDA-MB-231 cells culture were pretreated with different concentrations of the compounds for the indicated period and then harvested for nuclear extract preparation and DNA-binding assay with EMSA analysis. The ^32P-labeled oligonucleotide probe used was hSIE (high-affinity sis-inducible element) from the c-fos gene, m67 variant (5′-[…]-3′) that binds STAT3. Except where indicated, nuclear extracts were pre-incubated with compound for 30 min at room temperature prior to incubation with the radiolabeled probe for 30 min at 30° C. before subjecting to EMSA analysis. Where appropriate, bands corresponding to DNA-binding activities were scanned and quantified for each concentration of compound using ImageJ and plotted as percent of control (vehicle) against concentration of compound, from which the IC50 values were derived.

For assay [3], the system named is normal NIH3T3 mouse fibroblasts. Kind of assay: CyQuant cell viability/proliferation assay, NIH3T3. It counts as cell-based. The conditions noted are these: Table 1 grade; Table 1/FIG. 2 compound numbering. On the set-up: key to Activity against 3T3: +, active; −, no activity; +/−, poorly active. As to the method:
(§1) The cell viability assay was performed as previously reported (Zhang X, et al. (2010)). Briefly, a 10 millimolar concentration stock solution in dimethylsulfoxide (DMSO) of the tested molecule was first prepared. Next, the stock solution was diluted down to various working solutions in water. Thus, a formulation of the tested compound in a DMSO/water mixture was used to test for cell viability. (A novel small-molecule disrupts STAT3 SH2 domainphosphotyrosine interactions and STAT3-dependent tumor processes, Biochem Pharmacol 79:1398-1409; Zhao W, Jaganathan S, & Turkson J (2010), A cell-permeable STAT3 SH2 domain mimetic inhibits STAT3 activation and induces antitumor cell effects in vitro. J Biol Chem. 285:35855-35865). Cells (U251MG, MDA-MB-231 or NIH3T3) were obtained from ATCC (Manassas, Va.) and were cultured in 96-well plates at 2,000 cells per well for 24 h and were treated with compounds (5 micromolar concentration) for 72 h. Cell viabilty was determined using CyQuant assay, according to the manufacturer's (Invitrogen, CA, USA) instructions. Relative viability of the treated cells was normalized to the DMSO-treated control cells.

The next assay has as its system U251MG cells. Kind of assay: Colony survival assay, U251MG. Type of assay: cell-based, human. As to the method:
The effect of the isolated or synthesized compounds in a colony survival assay was performed.
This assay was performed as previously reported (Xu, Y., supra). The assay was performed as previously reported. Briefly, cells were seeded as single-cell in 6-well plates (250 cells per well), treated once the next day with compounds for 72 h, and allowed to grow until large colonies were visible. Colonies were stained with crystal violet for 4 h and counted with FluorChem imaging system (Protein Simple, Santa Clara, Calif.).

The next assay relates to pSTAT1. Kind of assay: Immunoblotting of EGF-induced pSTAT1 in NIH3T3/hEGFR. The following applies: 5 micromolar.
A further assay concerns pSTAT5. Kind of assay: Immunoblotting of EGF-induced pSTAT5 in NIH3T3/hEGFR. The following applies: 5 micromolar.
Assay [4] has as its system MDA-MB-231 breast cancer cells. Kind of assay: CyQuant cell viability/proliferation assay, MDA-MB-231. It counts as cell-based, human. On the set-up: key to Activity against 231: +, active; −, no activity; +/−, poorly active. The following applies: Table 1 grade; Table 1/FIG. 2 compound numbering. As to the method:
as §1

Assay [5] relates to U251MG glioblastoma cells. Kind of assay: CyQuant cell viability/proliferation assay, U251MG. The conditions noted are these: Table 1/FIG. 2 numbering. It counts as cell-based, human. As for the experimental part: as §1
Assay [6] concerns GSH levels in U251 MG cells. Kind of assay: Glutathione (GSH) levels in U251 MG cells.
Experimental: Reduced glutathione (GSH) and oxidized glutathione disulfide (GSSG) levels were assayed using a commercially available kit (Cayman Chemical, Ann Arbor, Mich.) and following the manufacturer's instructions.

T1 sequence (P42227 whole entry): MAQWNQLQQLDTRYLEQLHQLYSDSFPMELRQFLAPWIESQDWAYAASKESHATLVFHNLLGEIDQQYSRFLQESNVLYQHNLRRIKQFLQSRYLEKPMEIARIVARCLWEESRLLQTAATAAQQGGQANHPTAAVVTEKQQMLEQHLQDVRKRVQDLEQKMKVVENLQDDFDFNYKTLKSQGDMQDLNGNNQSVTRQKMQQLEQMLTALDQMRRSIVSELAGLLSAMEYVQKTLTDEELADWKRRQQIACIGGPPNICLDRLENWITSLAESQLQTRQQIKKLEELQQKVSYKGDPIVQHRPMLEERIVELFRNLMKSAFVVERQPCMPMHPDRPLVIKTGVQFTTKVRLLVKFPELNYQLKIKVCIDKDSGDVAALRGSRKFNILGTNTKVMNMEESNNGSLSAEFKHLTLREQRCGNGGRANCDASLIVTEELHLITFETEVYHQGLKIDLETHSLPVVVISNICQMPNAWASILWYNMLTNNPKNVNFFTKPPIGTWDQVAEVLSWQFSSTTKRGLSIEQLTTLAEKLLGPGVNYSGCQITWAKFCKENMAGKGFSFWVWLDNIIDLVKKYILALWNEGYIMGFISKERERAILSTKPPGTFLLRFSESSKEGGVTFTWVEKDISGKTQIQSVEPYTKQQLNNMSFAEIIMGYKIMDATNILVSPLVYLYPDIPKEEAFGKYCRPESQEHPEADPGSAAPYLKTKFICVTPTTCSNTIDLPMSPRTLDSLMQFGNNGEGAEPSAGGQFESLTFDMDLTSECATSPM
Experimental for pSTAT1: (§2) To determine the specificity of agents, mouse fibroblasts over-expressing the human EGF receptor (NIH3T3/hEGFR) were treated with the compounds and stimulated with EGF.
Experimental for pSTAT5: as §2

For “(4S,6R,E)-4,7-dihydroxy-6,10-dimethyl-2-oxo-2,4,5,6,7,8,9,10-octahydro-7,10-epoxycyclodeca[b]furan-3-yl)methyl(E)-2-methylbut-2-enoate [Compound 22]”, in the assay with PTP1B, the “Effect on PTP1B levels” value is recorded as “little or no effects”. Besides, the “Inhibition of STAT3 DNA-binding activity in treated cells (EMSA)” value in assay [1] was “early inhibition at 15-30 min”. The “Inhibition of STAT3 DNA-binding activity in vitro (EMSA)” value in assay [2] is given as “strong inhibition”. For the same substance, in assay [3], the “Activity against 3T3” value was “+/−”. Also, the “Preferential effect on colony survival of U251MG and MDA-MB231 over MCF-7” value in the assay on U251MG cells came out at 2.5 fold. For the same substance, in the assay on pSTAT1, the “Effect on EGF-induced pSTAT1” value was “no effects”. Besides, the “Effect on EGF-induced pSTAT5” value in the assay on pSTAT5 is “no effects”. For the same substance, in [4], the “Activity against 231” value is reported as “+”. For the same substance, the negative-log IC50 (pIC50) in assay [5] (72-h treatment, read-out: IC50 for the inhibition of U251MG cell viability) is 5.59. The “Cell-type selectivity of growth inhibition, in words” value in [5] (U251MG versus other cells incl. NIH3T3) is reported as “selective against the growth of human glioma U251MG cells”. Also, the “Effect on GSH levels” value in assay [6] was “did not repress GSH levels”.
